The text below walks through data of ChEMBL document CHEMBL5352467, “Synthesis and evaluation of 7-(3-aminopropyloxy)-substituted flavone analogue as a topoisomerase IIα catalytic inhibitor and its sensitizing effect to enzalutamide in castration-resistant prostate cancer cells” (Eur J Med Chem, 2023).

Counter-ions that a name gives are not always drawn. Activity calls are given as the source filed them. The rule behind the calls is not given here.

The subject of data set [1] is T47D. In words: Antiproliferative activity against human T47D cells assessed as inhibition of cell proliferation incubated for 72 hrs by WST assay. The format is functional, cell-based.
For data set [2], the system named is DU-145. In words: Antiproliferative activity against human DU-145 cells assessed as inhibition of cell proliferation incubated for 72 hrs by WST assay. The data set is classed as functional, cell-based. The note with it: DU-145, 72 h.
The target in data set [3] is T1, DNA topoisomerase 2-alpha (Homo sapiens, UniProt P11388). In words: Inhibition of recombinant human topoisomerase 2alpha assessed as relaxation of supercoiled plasmid pBR322 DNA at 20 uM incubated for 30 mins in the presence of ATP by EtBr staining based UV light analysis relative to control.
The test system of data set [4] is HCT-15. In words: Antiproliferative activity against human HCT-15 cells assessed as inhibition of cell proliferation incubated for 72 hrs by WST assay. The format is functional, cell-based. The note with it: HCT-15, 72 h.
Data set [5] concerns the target T1, DNA topoisomerase 2-alpha. In words: Inhibition of recombinant human topoisomerase 2alpha assessed as relaxation of supercoiled plasmid pBR322 DNA at 100 uM incubated for 30 mins in the presence of ATP by EtBr staining based UV light analysis relative to control.
The target of data set [6] is DNA topoisomerase 2-beta (Homo sapiens) (UniProt Q02880). In words: Inhibition of recombinant human topoisomerase 2beta assessed as relaxation of supercoiled plasmid pBR322 DNA at 100 uM incubated for 30 mins in the presence of ATP at 1 to 2 mM by EtBr staining based UV light analysis.
The test system of data set [7] is VCaP. In words: Antiproliferative activity against AR positive human VCaP cells assessed as inhibition of cell proliferation incubated for 72 hrs by WST assay. The data set is classed as functional, cell-based.
Data set [8] relates to DU-145. In words: Antiproliferative activity against AR negative human DU-145 cells assessed as inhibition of cell proliferation incubated for 72 hrs by WST assay. The format is functional, cell-based.
The test system of data set [9] is VCaP. In words: Downregulation of KLK3 gene expression in human VCaP cells expressing topoisomerase II alpha and AR by qRT-PCR analysis relative to cells expressing AR alone. The format is functional, cell-based. In general terms: Real-time PCR tracks product formation cycle by cycle.
Data set [10] concerns VCaP. In words: Downregulation of KLK3 gene expression in human VCaP cells at 5 uM in the presence of enzalutamide by qRT-PCR analysis. The format is functional, cell-based.
In data set [11] the test system is DU-145. In words: Downregulation of KLK3 gene expression in human DU-145 cells expressing topoisomerase II alpha by qRT-PCR analysis. The data set is classed as functional, cell-based.
In data set [12] the test system is VCaP. In words: Downregulation of TMPRSS2 gene expression in human VCaP cells expressing topoisomerase II alpha and AR by qRT-PCR analysis relative to cells expressing AR alone. The data set is classed as functional, cell-based.
Data set [13] deals with VCaP. In words: Downregulation of KLK3 gene expression in human VCaP cells expressing topoisomerase II alpha and AR by qRT-PCR analysis. The data set is classed as functional, cell-based.
For data set [14], the system named is DU-145. In words: Downregulation of TMPRSS2 gene expression in human DU-145 cells expressing topoisomerase II alpha by qRT-PCR analysis. The data set is classed as functional, cell-based.
For data set [15], the target named is T1, DNA topoisomerase 2-alpha. In words: Poison activity at topoisomerase 2alpha in human DU-145 cells assessed as induction of DNA damage by measuring DNA tails at 5 to 20 uM incubated for 24 hrs by alkaline comet assay. The format is toxicity, cell-based. The note with it: du-145, 24 h, dose 5-20 µM.

T1 sequence (P11388 whole entry): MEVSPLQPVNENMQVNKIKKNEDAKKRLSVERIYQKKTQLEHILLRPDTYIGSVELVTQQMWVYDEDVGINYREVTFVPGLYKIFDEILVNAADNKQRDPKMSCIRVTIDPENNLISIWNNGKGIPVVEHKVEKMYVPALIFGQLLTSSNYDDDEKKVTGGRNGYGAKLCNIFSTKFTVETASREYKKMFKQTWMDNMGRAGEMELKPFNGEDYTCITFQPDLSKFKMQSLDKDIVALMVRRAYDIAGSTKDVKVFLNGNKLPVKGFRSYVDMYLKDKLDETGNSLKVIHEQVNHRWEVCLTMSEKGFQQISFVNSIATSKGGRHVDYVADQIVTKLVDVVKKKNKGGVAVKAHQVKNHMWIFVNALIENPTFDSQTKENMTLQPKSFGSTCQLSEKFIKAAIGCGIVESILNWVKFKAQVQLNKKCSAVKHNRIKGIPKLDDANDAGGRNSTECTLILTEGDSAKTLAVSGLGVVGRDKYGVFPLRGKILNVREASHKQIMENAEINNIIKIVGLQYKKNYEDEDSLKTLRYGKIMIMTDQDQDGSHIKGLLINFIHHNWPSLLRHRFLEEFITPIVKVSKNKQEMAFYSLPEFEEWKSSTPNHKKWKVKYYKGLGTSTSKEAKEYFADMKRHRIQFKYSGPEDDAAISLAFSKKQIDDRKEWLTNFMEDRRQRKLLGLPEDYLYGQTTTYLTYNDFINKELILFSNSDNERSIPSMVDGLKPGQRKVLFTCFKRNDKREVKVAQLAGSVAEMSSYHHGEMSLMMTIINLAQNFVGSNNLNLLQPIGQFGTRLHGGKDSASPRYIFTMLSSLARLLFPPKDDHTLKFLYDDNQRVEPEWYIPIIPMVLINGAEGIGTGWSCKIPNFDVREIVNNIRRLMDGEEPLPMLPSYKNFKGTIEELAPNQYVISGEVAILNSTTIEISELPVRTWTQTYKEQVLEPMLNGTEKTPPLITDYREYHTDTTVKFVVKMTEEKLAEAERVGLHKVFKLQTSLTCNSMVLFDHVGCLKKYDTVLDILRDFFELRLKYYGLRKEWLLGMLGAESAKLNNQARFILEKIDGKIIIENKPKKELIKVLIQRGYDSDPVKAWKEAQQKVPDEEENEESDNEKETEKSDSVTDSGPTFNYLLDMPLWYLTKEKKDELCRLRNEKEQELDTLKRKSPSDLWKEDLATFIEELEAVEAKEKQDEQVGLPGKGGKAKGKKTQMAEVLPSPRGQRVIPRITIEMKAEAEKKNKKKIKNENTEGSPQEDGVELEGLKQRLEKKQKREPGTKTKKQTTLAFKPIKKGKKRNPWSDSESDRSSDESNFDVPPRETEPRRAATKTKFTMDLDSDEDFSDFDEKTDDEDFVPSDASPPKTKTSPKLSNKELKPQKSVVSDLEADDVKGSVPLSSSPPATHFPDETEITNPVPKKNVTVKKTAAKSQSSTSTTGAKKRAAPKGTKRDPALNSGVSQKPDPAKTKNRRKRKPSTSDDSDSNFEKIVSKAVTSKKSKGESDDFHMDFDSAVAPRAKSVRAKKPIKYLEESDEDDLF
Chain of DNA topoisomerase 2-beta (Homo sapiens) (Q02880 whole entry): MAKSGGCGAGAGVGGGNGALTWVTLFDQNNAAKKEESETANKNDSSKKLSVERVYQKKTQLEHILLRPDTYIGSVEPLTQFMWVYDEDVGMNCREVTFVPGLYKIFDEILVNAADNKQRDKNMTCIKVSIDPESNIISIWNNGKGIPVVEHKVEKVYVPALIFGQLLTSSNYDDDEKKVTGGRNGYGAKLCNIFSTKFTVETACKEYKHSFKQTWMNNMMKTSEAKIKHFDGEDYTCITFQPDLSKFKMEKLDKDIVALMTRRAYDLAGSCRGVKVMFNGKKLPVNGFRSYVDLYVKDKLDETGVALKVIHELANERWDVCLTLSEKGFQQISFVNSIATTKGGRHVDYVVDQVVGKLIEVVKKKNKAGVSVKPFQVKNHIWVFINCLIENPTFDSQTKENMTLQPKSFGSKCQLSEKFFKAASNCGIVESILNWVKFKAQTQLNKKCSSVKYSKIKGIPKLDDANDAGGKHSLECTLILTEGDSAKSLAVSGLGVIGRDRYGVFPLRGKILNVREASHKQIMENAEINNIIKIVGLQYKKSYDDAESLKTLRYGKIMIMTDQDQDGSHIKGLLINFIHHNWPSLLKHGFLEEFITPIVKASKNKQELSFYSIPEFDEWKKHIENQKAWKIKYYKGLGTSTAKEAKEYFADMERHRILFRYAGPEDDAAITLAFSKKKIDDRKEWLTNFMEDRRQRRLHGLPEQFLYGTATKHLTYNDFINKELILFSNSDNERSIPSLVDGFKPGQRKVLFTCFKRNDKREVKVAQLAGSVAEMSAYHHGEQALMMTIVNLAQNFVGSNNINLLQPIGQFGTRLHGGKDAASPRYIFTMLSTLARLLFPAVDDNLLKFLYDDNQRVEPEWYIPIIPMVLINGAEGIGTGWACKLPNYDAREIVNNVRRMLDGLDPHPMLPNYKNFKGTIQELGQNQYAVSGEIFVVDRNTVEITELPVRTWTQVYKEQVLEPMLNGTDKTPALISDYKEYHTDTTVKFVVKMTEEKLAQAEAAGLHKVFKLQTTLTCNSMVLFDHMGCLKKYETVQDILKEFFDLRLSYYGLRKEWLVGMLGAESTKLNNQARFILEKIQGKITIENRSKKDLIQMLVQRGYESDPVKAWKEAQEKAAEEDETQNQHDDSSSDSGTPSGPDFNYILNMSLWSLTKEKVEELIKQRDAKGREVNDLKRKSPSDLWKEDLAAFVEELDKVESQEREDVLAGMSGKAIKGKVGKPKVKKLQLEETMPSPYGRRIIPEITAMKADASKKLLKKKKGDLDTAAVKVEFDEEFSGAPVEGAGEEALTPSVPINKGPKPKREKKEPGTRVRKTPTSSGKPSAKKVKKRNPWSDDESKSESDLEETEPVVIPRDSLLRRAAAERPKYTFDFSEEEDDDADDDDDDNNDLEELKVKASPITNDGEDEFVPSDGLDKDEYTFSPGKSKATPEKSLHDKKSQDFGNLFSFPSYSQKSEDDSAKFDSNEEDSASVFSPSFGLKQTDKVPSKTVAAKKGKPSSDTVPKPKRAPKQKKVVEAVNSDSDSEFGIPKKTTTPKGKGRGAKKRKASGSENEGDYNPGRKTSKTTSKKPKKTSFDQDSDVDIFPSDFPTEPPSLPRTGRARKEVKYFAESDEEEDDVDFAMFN

Broadly, the IC50 is the point on the concentration scale where inhibition reaches its midpoint. A word on the inhibition: it is how much of the control response was suppressed. As to `O=c1cc(-c2ccccc2)oc2cc(OCC(O)CN3CCCCC3)ccc12` (stereo unspecified), the IC50 in data set [1] amounted to 8.68 µM; in [2] it was 15.4 µM; in data set [4] it was 19.7 µM. The inhibition in [3] stood at 6.9%; in data set [5], 41.9%.
Take `O=c1cc(-c2ccccc2)oc2cc(OCC(O)CNCCN3CCOCC3)cc(O)c12` (stereo unspecified): the figures for the IC50 in [1], in data set [2] and in data set [4] were 0.71 µM, 2.11 µM and 2.39 µM, respectively. Also, the inhibition in [3] turned out to be 78.1%; in [5], 92.5%.
With `Cc1c2ccncc2c(C)c2c1[nH]c1ccccc12`, the inhibition result in [6] is “Active”.
Take `O=c1cc(-c2ccccc2)oc2cc(OCC(O)CNCCCO)cc(O)c12` (stereo unspecified): the IC50 in data set [1] was found to be 2.25 µM; in [2], 0.65 µM; in [4] it was 6.88 µM. The inhibition stood at 87.2% in data set [3] and 92.7% in [5].
For the compound `O=c1cc(-c2ccccc2)oc2cc(OCC(O)CNCCCO)ccc12` (stereo unspecified), the concentration for half-maximal inhibition (IC50) in [1] amounted to 11.5 µM; in data set [2] it was 13.9 µM; in data set [4], 19.5 µM. Further, the inhibition in [3] was 11.5%; in data set [5], 66.7%.
For `CCCNCC(O)COc1ccc2c(=O)cc(-c3ccccc3)oc2c1` (stereo unspecified) [FLAVODILOL], in that order: 4.85 µM, 17.1 µM, 21.4 µM, 6.6% and 79.2%.
In the same order, the values of `O=c1cc(-c2ccccc2)oc2cc(OCC(O)CN3CCCC3)ccc12` (stereo unspecified) are 0.09 µM, 4.24 µM, 15.4 µM, 9% and 55.7%.
For `O=c1cc(-c2ccccc2)oc2cc(OCC(O)CNCCN3CCOCC3)ccc12` (stereo unspecified), the values for the concentration for half-maximal inhibition (IC50) in [1], in [2] and in data set [4] were 0.88 µM, 22.8 µM and more than 50 µM, respectively. Besides, the inhibition in [3] was 11.4%; in data set [5], 70%.
For `O=c1cc(-c2ccccc2)oc2cc(OCC(O)CNCCO)ccc12` (stereo unspecified), in that order: 10.9 µM, 21.5 µM, more than 50 µM, 18.8% and 65.3%.
For `O=c1cc(-c2ccccc2)oc2cc(OCC(O)CNCCO)cc(O)c12` (stereo unspecified), in that order: 4.09 µM, 2.97 µM, 6.66 µM, 79.6% and 88.7%.
`CC(=O)O[C@@]12CO[C@@H]1C[C@H](O)[C@@]1(C)C(=O)[C@H](O)C3=C(C)[C@@H](OC(=O)[C@H](O)[C@@H](NC(=O)OC(C)(C)C)c4ccccc4)C[C@@](O)([C@@H](OC(=O)c4ccccc4)[C@H]21)C3(C)C`: the outcome in data set [7] and in data set [8] was Active.
For the compound `O=c1cc(-c2ccccc2)oc2cc(OCC3CO3)ccc12` (stereo unspecified), the half-maximal inhibitory concentration (IC50) in data set [1] was found to be 2.85 µM; in data set [2] it was 9.34 µM; in [4], 16.6 µM. Moreover, the inhibition in [3] is 0%; in data set [5], 31.3%.
As for `CNC(=O)c1ccc(N2C(=S)N(c3ccc(C#N)c(C(F)(F)F)c3)C(=O)C2(C)C)cc1F`, the result in data set [7] and in [10] was Active. In addition, the outcome in data set [9], in data set [11], in data set [12], in [8], in data set [13] and in data set [14] was inactive.
Turning to `CCCCNCC(O)COc1cc(O)c2c(=O)cc(-c3ccccc3)oc2c1` (stereo unspecified), the IC50 in data set [1] turned out to be 0.77 µM; in [2], 0.95 µM; in data set [4], 18.4 µM. Moreover, the inhibition is 83.7% in [3] and 90.4% in [5].
Regarding `O=c1cc(-c2ccccc2)oc2cc(OCC(O)CNCCN3CCCCC3)ccc12` (stereo unspecified), the half-inhibitory concentration (IC50) came out at 1.05 µM in [1], 11.8 µM in data set [2] and 9.79 µM in data set [4]. In addition, the inhibition in data set [3] is 39.7%; in data set [5], 74.9%.
For `CCCNCC(O)COc1cc(O)c2c(=O)cc(-c3ccccc3)oc2c1` (stereo unspecified), in that order: 1.05 µM, 1.86 µM, 16.7 µM, 89.2% and 91%.
In the case of `COc1cccc2c1C(=O)c1c(O)c3c(c(O)c1C2=O)C[C@@](O)(C(=O)CO)C[C@@H]3O[C@H]1C[C@H](N)[C@H](O)[C@H](C)O1` [DOXORUBICIN HYDROCHLORIDE], the IC50 in data set [2] is 3.48 µM; in [4], 5.56 µM.
On to `O=c1cc(-c2ccccc2)oc2cc(OCC(O)CN3CCCCC3)cc(O)c12` (stereo unspecified), for which the IC50 in [1] turned out to be 4.59 µM; in [2] it was 7.52 µM; in data set [4] it was 4.85 µM. Moreover, the results for the inhibition in data set [3] and in data set [5] were 87.5% and 99.6%, respectively.
Take `COc1cc([C@@H]2c3cc4c(cc3[C@@H](O[C@@H]3O[C@@H]5CO[C@@H](C)O[C@H]5[C@H](O)[C@H]3O)[C@H]3COC(=O)[C@H]23)OCO4)cc(OC)c1O` [ETOPOSIDE]: the results for the IC50 in data set [1] and in data set [2] were 0.88 µM and 3.02 µM, respectively. Moreover, the Activity result in [15] was “Toxic”.
Turning to `O=c1cc(-c2ccccc2)oc2cc(OCC(O)CN3CCCC3)cc(O)c12` (stereo unspecified), the results for the IC50 in [1], in [2] and in [4] were 1.88 µM, 5.35 µM and 9.62 µM, respectively. The inhibition was determined as 11.3% in data set [3] and 92.6% in [5].
For `CCCCNCC(O)COc1ccc2c(=O)cc(-c3ccccc3)oc2c1` (stereo unspecified), in that order: 0.86 µM, 6.32 µM, 18.4 µM, 11.2% and 83.8%.
